According to US10093630B2, “Pyrazole compounds and methods of making and using same” (ABIDE THERAPEUTICS, INC., priority 2014, dated 2018):
Like-named read-outs stand apart in the source and are kept apart here.

Columns and labels:
Assay in all cases: In vitro competitive activity-based protein profiling (gel-based, FP-Rh or HT-01 probe)
Type in all cases: biochemical
ABHD6 = molecular target: T1, ABHD6 (Mus musculus, UniProt Q8R2Y0); settings: for inhibition at 1 µM: 1 μM inhibitor, read-out: % Inhibition at 1 μM, C = ABHD6; for inhibition at 10 µM: 10 μM inhibitor, read-out: % Inhibition at 10 μM, C = ABHD6; for IC50: mouse brain membrane fraction or cell lysates, 30 min preincubation at 37° C., read-out: Mouse (IC50 value, nM) ABHD6
T1 construct: Proteomes (mouse brain membrane fraction or cell lysates); from tissue; host or cells: mouse brain membrane fraction (or cell lysates, not specified)
T1 sequence (Q8R2Y0 1-336): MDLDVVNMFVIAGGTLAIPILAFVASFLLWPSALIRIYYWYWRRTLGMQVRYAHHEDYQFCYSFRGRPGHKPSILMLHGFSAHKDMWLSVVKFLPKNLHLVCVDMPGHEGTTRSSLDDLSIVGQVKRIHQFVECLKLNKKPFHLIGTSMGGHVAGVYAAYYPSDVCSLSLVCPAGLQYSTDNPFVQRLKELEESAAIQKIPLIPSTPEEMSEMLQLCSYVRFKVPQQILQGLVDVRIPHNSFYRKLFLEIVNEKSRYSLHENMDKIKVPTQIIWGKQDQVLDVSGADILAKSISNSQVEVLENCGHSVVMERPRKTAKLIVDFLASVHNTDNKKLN
How it was run: (§1)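 Competitive labelling format in mouse brain membrane fractions or lysates at 1.0 mg/mL total protein: compounds preincubate 30 min at 37° C, activity probe FP-Rh or HT-01 then reacts 30 min at 37° C. Gel band fluorescence gives target activity.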

FAAH = molecular target: T2, FAAH (Mus musculus, UniProt O08914); settings: for inhibition at 1 µM: 1 μM inhibitor, read-out: % Inhibition at 1 μM, B = FAAH; for inhibition at 10 µM: 10 μM inhibitor, read-out: % Inhibition at 10 μM, B = FAAH; for IC50: mouse brain membrane fraction or cell lysates, 30 min preincubation at 37° C., read-out: Mouse (IC50 value, nM) FAAH
T2 construct: Proteomes (mouse brain membrane fraction or cell lysates); from tissue; host or cells: mouse brain membrane fraction (or cell lysates, not specified)
T2 sequence (O08914 1-579): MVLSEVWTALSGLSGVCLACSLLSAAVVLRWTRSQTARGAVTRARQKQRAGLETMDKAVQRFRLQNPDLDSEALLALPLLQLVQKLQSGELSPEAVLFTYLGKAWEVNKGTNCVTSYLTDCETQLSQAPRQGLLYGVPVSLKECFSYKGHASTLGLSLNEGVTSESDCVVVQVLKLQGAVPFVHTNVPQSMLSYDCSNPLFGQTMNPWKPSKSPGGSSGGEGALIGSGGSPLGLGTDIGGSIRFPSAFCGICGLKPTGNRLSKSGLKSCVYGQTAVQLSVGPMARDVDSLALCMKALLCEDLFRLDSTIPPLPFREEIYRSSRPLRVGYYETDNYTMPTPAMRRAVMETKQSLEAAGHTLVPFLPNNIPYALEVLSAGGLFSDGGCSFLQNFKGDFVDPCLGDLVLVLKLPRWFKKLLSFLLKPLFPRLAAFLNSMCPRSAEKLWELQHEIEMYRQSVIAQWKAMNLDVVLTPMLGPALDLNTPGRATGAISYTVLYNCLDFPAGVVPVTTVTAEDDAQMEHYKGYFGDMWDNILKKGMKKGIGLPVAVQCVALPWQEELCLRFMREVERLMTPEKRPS
How it was run: as §1

MAGL = molecular target: T3, MAGL (Mus musculus, UniProt O35678); settings: for inhibition at 1 µM: 1 μM inhibitor; for inhibition at 10 µM: 10 μM inhibitor; for IC50: mouse brain membrane fraction or cell lysates, 30 min preincubation at 37° C., read-out: Mouse (IC50 value, nM) MAGL
T3 construct: Proteomes (mouse brain membrane fraction or cell lysates); from tissue; host or cells: mouse brain membrane fraction (or cell lysates, not specified)
T3 sequence (O35678 1-303): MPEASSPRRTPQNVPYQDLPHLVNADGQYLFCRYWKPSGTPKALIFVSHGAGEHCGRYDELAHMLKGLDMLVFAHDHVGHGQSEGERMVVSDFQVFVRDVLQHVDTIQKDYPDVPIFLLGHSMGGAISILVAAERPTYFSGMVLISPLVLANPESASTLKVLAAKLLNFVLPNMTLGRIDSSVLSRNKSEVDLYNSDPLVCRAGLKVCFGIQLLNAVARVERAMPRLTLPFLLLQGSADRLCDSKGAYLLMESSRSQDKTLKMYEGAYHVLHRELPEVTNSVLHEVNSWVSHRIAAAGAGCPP
How it was run: as §1

PLA2G7 = molecular target: T4, PLA2G7 (Mus musculus, UniProt Q60963); settings: for inhibition at 1 µM: 1 μM inhibitor, read-out: % Inhibition at 1 μM, D = PLA2G7; for inhibition at 10 µM: 10 μM inhibitor, read-out: % Inhibition at 10 μM, D = PLA2G7; for IC50: mouse brain membrane fraction or cell lysates, 30 min preincubation at 37° C.
T4 construct: Proteomes (mouse brain membrane fraction or cell lysates); from tissue; host or cells: mouse brain membrane fraction (or cell lysates, not specified)
T4 sequence (Q60963 22-440): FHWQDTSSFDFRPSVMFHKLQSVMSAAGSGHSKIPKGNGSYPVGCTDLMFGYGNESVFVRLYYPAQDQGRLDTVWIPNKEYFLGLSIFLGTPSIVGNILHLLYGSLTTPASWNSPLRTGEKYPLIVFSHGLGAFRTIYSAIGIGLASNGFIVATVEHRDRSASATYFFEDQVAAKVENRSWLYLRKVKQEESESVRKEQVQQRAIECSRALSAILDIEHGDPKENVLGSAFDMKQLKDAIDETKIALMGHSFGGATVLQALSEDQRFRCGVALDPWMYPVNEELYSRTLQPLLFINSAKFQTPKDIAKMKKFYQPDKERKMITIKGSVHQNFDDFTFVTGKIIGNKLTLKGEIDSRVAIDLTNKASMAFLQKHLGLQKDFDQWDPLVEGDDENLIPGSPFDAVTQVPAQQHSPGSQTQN
How it was run: as §1

Row | SMILES | inhibition at 1 µM (ABHD6; gel-based competitive ABPP) [%] | inhibition at 10 µM (ABHD6; gel-based competitive ABPP) [%] | inhibition at 1 µM (FAAH; gel-based competitive ABPP) [%] | inhibition at 10 µM (FAAH; gel-based competitive ABPP) [%] | inhibition at 1 µM (MAGL; gel-based competitive ABPP) [%] | inhibition at 10 µM (MAGL; gel-based competitive ABPP) [%] | inhibition at 1 µM (PLA2G7; gel-based competitive ABPP) [%] | inhibition at 10 µM (PLA2G7; gel-based competitive ABPP) [%] | inhibition at 10 µM (ABHD6) [%] | inhibition at 10 µM (FAAH) [%] | inhibition at 10 µM (MAGL) [%] | inhibition at 10 µM (PLA2G7) [%] | inhibition at 1 µM (ABHD6) [%] | inhibition at 1 µM (FAAH) [%] | inhibition at 1 µM (MAGL) [%] | inhibition at 1 µM (PLA2G7) [%] | IC50 (ABHD6) [nM] | IC50 (FAAH) [nM] | IC50 (MAGL) [nM] | IC50 (PLA2G7) [nM]
1 | Cc1cnn(C(=O)NCCCc2ccccc2)c1 [Example 32, 4-Methyl-N-(3-phenylpropyl)-1H-pyrazole-1-carboxamide] | – | – | – | – | – | – | – | – | < 25 | < 25 | < 25 | < 25 | – | – | – | – | – | – | – | –
2 | O=C(c1cnn(C(=O)N2CCN(Cc3nccs3)CC2)c1)N1CCCC1 [Example 83, Pyrrolidin-1-yl(1-(4-(thiazol-2-ylmethyl)piperazine-1-carbonyl)-1H-pyrazol-4-yl)methanone] | – | – | – | – | – | – | – | – | > 75 | > 75 | < 25 | > 75 | < 25 | < 25 | < 25 | < 25 | – | – | – | –
3 | CS(=O)(=O)N1CCN(C(=O)n2cc(C#N)cn2)CC1 [Example 174, 1-(4-(Methylsulfonyl)piperazine-1-carbonyl)-1H-pyrazole-4-carbonitrile] | – | – | – | – | – | – | – | – | > 75 | 25 to 75 | 25 to 75 | > 75 | > 75 | < 25 | < 25 | > 75 | – | – | – | –
4 | CN(CCN(C)C(=O)n1cccn1)C(=O)OC(C)(C)C [Example 28, tert-Butyl methyl(2-(N-methyl-1H-pyrazole-1-carboxamido)ethyl)carbamate] | – | – | – | – | – | – | – | – | 25 to 75 | 25 to 75 | 25 to 75 | < 25 | < 25 | < 25 | < 25 | < 25 | – | – | – | –
5 | CCN(Cc1ccccc1Cl)C(=O)n1cc(Cl)cn1 [Example 130, 4-Chloro-N-(2-chlorobenzyl)-N-ethyl-1H-pyrazole-1-carboxamide] | – | – | – | – | – | – | – | – | – | – | – | – | < 25 | < 25 | < 25 | < 25 | – | – | – | –
6 | CCN(Cc1ccc(C)cc1)C(=O)n1cc(Cl)cn1 [Example 133, 4-Chloro-N-ethyl-N-(4-methylbenzyl)-1H-pyrazole-1-carboxamide] | – | – | – | – | – | – | – | – | > 75 | > 75 | > 75 | < 25 | < 25 | > 75 | < 25 | < 25 | > 1000 | < 100 | > 1000 | –
7 | N#Cc1cnn(C(=O)N2CCN(Cc3ccc(-c4ccccc4)cc3Cl)CC2)c1 [Example 140, 1-(4-((3-chlorobiphenyl-4-yl)methyl)piperazine-1-carbonyl)-1H-pyrazole-4-carbonitrile] | – | – | – | – | – | – | – | – | > 75 | > 75 | > 75 | > 75 | > 75 | > 75 | > 75 | > 75 | – | – | – | –

More lines, now with the values ahead:

Row | inhibition at 1 µM (ABHD6; gel-based competitive ABPP) [%] | inhibition at 10 µM (ABHD6; gel-based competitive ABPP) [%] | inhibition at 1 µM (FAAH; gel-based competitive ABPP) [%] | inhibition at 10 µM (FAAH; gel-based competitive ABPP) [%] | inhibition at 1 µM (MAGL; gel-based competitive ABPP) [%] | inhibition at 10 µM (MAGL; gel-based competitive ABPP) [%] | inhibition at 1 µM (PLA2G7; gel-based competitive ABPP) [%] | inhibition at 10 µM (PLA2G7; gel-based competitive ABPP) [%] | inhibition at 10 µM (ABHD6) [%] | inhibition at 10 µM (FAAH) [%] | inhibition at 10 µM (MAGL) [%] | inhibition at 10 µM (PLA2G7) [%] | inhibition at 1 µM (ABHD6) [%] | inhibition at 1 µM (FAAH) [%] | inhibition at 1 µM (MAGL) [%] | inhibition at 1 µM (PLA2G7) [%] | IC50 (ABHD6) [nM] | IC50 (FAAH) [nM] | IC50 (MAGL) [nM] | IC50 (PLA2G7) [nM] | SMILES
8 | > 75 | > 75 | > 75 | > 75 | > 75 | > 75 | > 75 | > 75 | – | – | – | – | – | – | – | – | – | – | – | – | O=C(c1cnn(C(=O)N2CCN(Cc3ccc(-c4ccccc4)cc3Cl)CC2)c1)N1CCCC1 [Example 289, (4-((3-Chlorobiphenyl-4-yl)methyl)piperazin-1-yl)(4-(pyrrolidine-1-carbonyl)-1H-pyrazol-1-yl)methanone]
9 | – | – | – | – | – | – | – | – | > 75 | > 75 | > 75 | > 75 | > 75 | > 75 | > 75 | > 75 | – | – | – | – | N#Cc1cnn(C(=O)N2CCN(c3ccccc3)CC2)c1 [Example 206, 1-(4-Phenylpiperazine-1-carbonyl)-1H-pyrazole-4-carbonitrile]
10 | – | – | – | – | – | – | – | – | > 75 | > 75 | > 75 | < 25 | 25 to 75 | > 75 | < 25 | < 25 | – | – | – | – | O=C(N1CCCN(Cc2ccccc2)CC1)n1cc(Cl)cn1 [Example 191, (4-Benzyl-1,4-diazepan-1-yl)(4-chloro-1H-pyrazol-1-yl)methanone]
11 | – | – | – | – | – | – | – | – | > 75 | > 75 | > 75 | > 75 | > 75 | > 75 | > 75 | > 75 | – | – | – | – | O=C(N1CCN(c2cccc(N3CCCC3)c2)CC1)n1cc(C(F)(F)F)cn1 [Example 240, (4-(3-(Pyrrolidin-1-yl)phenyl)piperazin-1-yl)(4-(trifluoromethyl)-1H-pyrazol-1-yl)methanone]
12 | > 75 | > 75 | > 75 | > 75 | > 75 | > 75 | > 75 | > 75 | – | – | – | – | – | – | – | – | – | – | – | – | N#Cc1cnn(C(=O)N2CCN(Cc3ccc(C(=O)N4CCCCC4)cc3F)CC2)c1 [Example 284, 1-(4-(2-Fluoro-4-(piperidine-1-carbonyl)benzyl)piperazine-1-carbonyl)-1H-pyrazole-4-carbonitrile]
13 | < 25 | – | > 75 | – | > 75 | – | < 25 | – | – | – | – | – | – | – | – | – | > 1000 | < 100 | 100 to 1000 | > 1000 | CCN(Cc1ccc(C)cc1)C(=O)n1cc(C#N)cn1 [Example 255, 4-Cyano-N-ethyl-N-(4-methylbenzyl)-1H-pyrazole-1-carboxamide]
14 | < 25 | – | > 75 | – | 25 to 75 | – | < 25 | – | – | – | – | – | – | – | – | – | > 1000 | < 100 | > 1000 | > 1000 | CCN(Cc1ccc(C)cc1)C(=O)n1cc(C(F)(F)F)cn1 [Example 256, N-Ethyl-N-(4-methylbenzyl)-4-(trifluoromethyl)-1H-pyrazole-1-carboxamide]
